Test results taken from patent US20100168228A1, “NOVEL CHEMOTHERAPEUTIC AGENTS AGAINST INFLAMMATION AND CANCER” (RELIANCE LIFE SCIENCES PVT. LTD., priority 2006, published 2010).

Experiments:
Format in all cases: cell-based, human
Jurkat cells = experiment: Cell cycle analysis (PI, flow cytometry), Jurkat; conditions: for cell cycle distribution with time: 100 nM and 500 nM
Experimental: (§1) Cells (log phase culture) were treated with vehicles alone (similar volumes of DMSO) or with the compound (various concentrations) to be tested for 24 h. Untreated cells were also included in this experiment for comparison. After treatments, the cells were harvested and washed with cold EDTA/PBS (5 mmol/L). Cells were then resuspended in cold EDTA/PBS (300 μl) and 100% chilled ethanol (700 μl), vortexed, and incubated at room temperature for 1 h. Samples were centrifuged at 200×g for 5 minutes and the supernatant was removed. A solution containing propidium iodide (100 μg/ml) and RNase A (1 mg/ml) was added to the samples and incubated for 1 h at room temperature. Samples were then transferred to 12×75 mm polystyrene tubes and analyzed on flow cytometer. Flow cytometry analyses were done on FACSCalibur (Becton Dickinson, San Jose, Calif.) and data were analyzed using CellQuest analysis software.
as §1, with “Cells (log phase culture) were treated with vehicles alone (similar volumes of DMSO) or with the compound (various concentrations) to be tested for 24 h.” left out, “PBS.” for “EDTA/PBS (5 mmol/L).”, “PBS” for “EDTA/PBS”

Cyclin D1 = Cyclin D1 mRNA, semi-quantitative RT-PCR; conditions: various concentrations
Experimental: FIG. 10: Effect of CAMVE on Cell Cycle distribution. A. 5×10^5 cells were treated with indicated concentrations of CAMVE as indicated and cell cycle analyses were performed using Flow Cytometry as described in the “Materials and Methods”. The percentage of cells in G1, S, and G2-M phase were calculated using Cell Quest analysis software and are represented within the histograms. The data shown here are from a representative experiment repeated three times with similar results. B. Expression of human Cyclin D1, was assayed by semi quantitative RT-PCR analysis with GAPDH as internal control. […]
Total RNA was isolated using the standard TRIzol method (Gibco BRL). Briefly, 3×10^6 cells were treated with different concentrations of the compounds as indicated in the legends to Figures and after harvesting the cell pellet was resuspended in 1 ml of TRIzol with repeated pipetting. The homogenized sample was incubated at RT for 5 min to permit complete dissociation of the nucleoprotein complexes. 200 μl of chloroform was added and the tubes were shaken vigorously for 15 sec by hand and then incubated at RT for 3 mins. The samples were then centrifuged at 10,000 RPM for 15 mins at 4° C. […]
Changes in gene expression were verified by semi-quantitative RT-PCR using GAPDH as an internal normalization standard. 1 μg of total RNA (quantified by spectrophotometer) was used to reverse transcribe into cDNA. […]

phosphotyrosine = experiment: Tyrosine phosphorylation assay (flow cytometry), Jurkat; conditions: 24 h
Experimental: FIG. 20: Suppression of phosphotyrosine levels in Jurkat cells by compound 27. 1×10^6 cells were treated with indicated concentrations of the compound for 24 h. Cells were fixed and permeabilized as described in the “Materials and Methods”, and the extent of tyrosine phosphorylation in the cells was determined by measuring the increase in fluorescence produced by the FITC-labeled monoclonal antibody compared to the FITC-labeled isotype control antibody. 100 nM concentration was sufficient to bring significant reduction in tyrosine phosphorylation levels compared to the control values.
Tyrosine Phosphorylation assay: Tyrosine Phosphorylation assay was performed by the method described by Far, D. F. et. al., (Cytometry (1994) 15(4):327-334) and Park. J. B., et al. ((2003) Cancer Letters, 202 161-171). Briefly, cells (10^6) were washed with ice-cold PBS, pH 7.2 for 30 min at 4° C. After centrifugation and a PBS wash it was treated with 5 ml chilled 70% ethanol. […] Extent of tyrosine phosphorylation in the cells was determined by measuring the increase in fluorescence produced by the FITC-labeled monoclonal antibody compared to the FITC-labeled isotype control antibody. Fluorecence events for 10,000 cells were collected and analyzed by flow cytometry (FACSCalibur cytometer with CellQuest software, Becton Dicinson, San Jose, Calif.).

Compound | cell cycle distribution (Jurkat cells; 5 μM, 24 h) | expression of cyclin D1 m-RNA (Cyclin D1) | phosphotyrosine level (mean fluorescence intensity) (phosphotyrosine; 100 nM, vs untreated controls) | phosphotyrosine level (phosphotyrosine; all doses) | G2/M population (Jurkat cells; 50 nM (data not shown)) | cell cycle distribution with time (Jurkat cells; 48 and 72 h) | cell cycle distribution with time (Jurkat cells; 24 h) | increase of cells in the G2/M phase (Jurkat cells; 100 nM, 24 h) [%] | G2/M and sub G1 population (Jurkat cells; concentration higher than 100 nM)
COC(=O)c1ccc(OC(=O)/C=C/c2ccc(O)c(O)c2)c(OC)c1 [compound 1, Methyl 4-{[(2E)-3-(3,4-dihydroxyphenyl)prop-2-enoyl]oxy}-3-methoxybenzoate] | significant increase of cells in the G1 and compensatory decrease in the S phase | notably decreased | – | – | – | – | – | – | –
COc1cc([C@@H]2Oc3c(OC)cc(/C=C/C(=O)O)cc3[C@H]2C(=O)O)ccc1O [compound 27, 5-[(E)-2-carboxyvinyl]-2β-(4-hydroxy-3-methoxyphenyl)-7-methoxy-2,3-dihydro-1-benzofuran-3α-carboxylic acid] | – | – | significant reduction in the mean fluorescence intensity | reduced at all doses | no significant increase in G2/M population | significant decrease in the G2/M population | accumulated in G2/M after 24 h with a significant decrease in the G1 and S phase populations | ~50 | further increase in both G2/M and sub G1 population
